Assay results taken from BindingDB's records for doi:10.1016/j.ejmech.2014.08.060 (European Molecular Biology Laboratory, 2014).

Experiments:
[1] = molecular target: Protein tyrosine phosphatase type IVA 3 (Homo sapiens, UniProt O75365); assay: Inhibition of PRL3 (unknown origin) using DiFMUP as fluorogenic phosphate substrate assessed as DiFMUP dephosphorylation
[2] = molecular target: T1, Protein tyrosine phosphatase type IVA 1 (Homo sapiens, UniProt Q93096); assay: Inhibition of PRL1 (unknown origin) using DiFMUP as fluorogenic phosphate substrate assessed as DiFMUP dephosphorylation
T1 sequence (Q93096 whole entry): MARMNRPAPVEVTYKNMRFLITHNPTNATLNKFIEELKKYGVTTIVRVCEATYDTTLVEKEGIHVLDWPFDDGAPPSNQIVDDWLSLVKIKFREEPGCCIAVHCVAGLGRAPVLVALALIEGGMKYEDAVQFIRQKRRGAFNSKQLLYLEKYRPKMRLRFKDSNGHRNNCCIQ

[3] = molecular target: T2, Protein tyrosine phosphatase type IVA 2 (Homo sapiens, UniProt Q12974); assay: Inhibition of PRL2 (unknown origin) using DiFMUP as fluorogenic phosphate substrate assessed as DiFMUP dephosphorylation
T2 sequence (Q12974 whole entry): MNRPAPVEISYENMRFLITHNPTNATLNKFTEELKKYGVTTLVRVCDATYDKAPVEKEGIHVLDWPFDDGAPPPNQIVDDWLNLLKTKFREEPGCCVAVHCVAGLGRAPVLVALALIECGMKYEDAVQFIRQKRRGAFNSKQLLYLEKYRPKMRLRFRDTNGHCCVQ

Chain of Protein tyrosine phosphatase type IVA 3 (O75365 whole entry): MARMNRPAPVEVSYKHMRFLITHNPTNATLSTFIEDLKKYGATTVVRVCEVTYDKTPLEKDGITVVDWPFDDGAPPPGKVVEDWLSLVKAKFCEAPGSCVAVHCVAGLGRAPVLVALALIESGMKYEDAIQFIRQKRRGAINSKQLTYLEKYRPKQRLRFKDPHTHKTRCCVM

## O=C(O)c1ccc[n+]2c([O-])c(-c3ccccc3)sc12
[1]
  IC50: 102 µM
[2]
  IC50: 209 µM
[3]
  IC50: 188 µM

## O=C1CSC(=S)N1 [CHEBI:8830]
[2]
  IC50: 35 µM
[3]
  IC50: 188 µM
